From patent US20200383985A1, “Inhibitors of Protease Activated Receptor-2” (Endosome Therapeutics, Inc., priority 2017, published 2020)
Read-outs that look alike come from different tables or passages of the source.

Tests used:
Assay type in all cases: cell-based
[1] = target: T1, human (h) PAR2 (Homo sapiens, UniProt P55085); test: IP1 accumulation assay in KNRK-hPAR2 cells; settings: for inhibition at 30 µM: 100 nM 2F, 30 μM of antagonist, read-out: KNRK-PAR2 100 nM 2F: ND (inhibition of 2F at 30 μM of antagonist); for IC50: 2F (100 nM)-induced IP1, KNRK-hPAR2 cells, read-out: KNRK-PAR2 100 nM 2F pIC50 ± SEM (converted)
T1 construct: expressed in transfected cells; host or cells: KNRK cells (KNRK-hPAR2)
T1 sequence (P55085 26-397): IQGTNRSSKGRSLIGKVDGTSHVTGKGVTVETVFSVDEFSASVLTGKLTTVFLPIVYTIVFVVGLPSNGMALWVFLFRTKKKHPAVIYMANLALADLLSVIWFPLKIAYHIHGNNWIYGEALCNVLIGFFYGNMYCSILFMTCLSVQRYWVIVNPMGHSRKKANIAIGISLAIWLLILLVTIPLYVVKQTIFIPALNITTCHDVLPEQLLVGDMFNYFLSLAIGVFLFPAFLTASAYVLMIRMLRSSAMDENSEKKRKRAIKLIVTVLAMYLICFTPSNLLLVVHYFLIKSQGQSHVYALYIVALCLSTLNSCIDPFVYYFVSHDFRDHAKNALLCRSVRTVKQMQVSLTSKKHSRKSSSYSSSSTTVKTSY
Protocol: (§1) KNRK-hPAR2, KNRK or HT-29 cells were seeded at a density of 50×10^3 cells/well in a clear poly-d-lysine coated 96 well tissue culture plate. Following 24 h incubation at 37° C. and 5% CO2, media was removed and replaced with 80 μl IP1 stimulation buffer (10 mM HEPES, 1 mM CaCl2, 0.5 mM MgCl2, 4.2 mM KCl, 146 mM NaCl, 5.5 mM glucose, 50 mM LiCl). Following stimulation buffer addition, the wells received 10 μl of 10× antagonists or DMSO vehicle. All plates were further incubated at 37° C., 5% CO2 for 30 min. 10 μl of 2F or ATP was added to the plates and further incubated for 40 min. Following incubation, stimulation buffer was quickly removed by aspiration and replaced with 25 μl lysis buffer (IP-One HTRF® assay kit, Cisbio). Following incubation of the lysates at 37° C., 5% CO2 for 10′, 10 μl lysate was transferred to a 384-well OptiPlate (PerkinElmer) and detected using the IP-One HTRF® assay kit (Cisbio).
(§2) Compounds of the invention (added at 10×concentrations in a 10 μL volume) were incubated for 30 min prior to the addition of 10 μM ATP or 100 nM or 300 nM PAR2 agonist (2F; EC80, added at 10×concentrations in a 10 μL volume) and then further incubated for 40 min. After lysis, the inositol phosphate 1 was quantified with IP-One HTRF® assay kit, Cisbio. The data was analysed with Prism, GraphPad to calculate the IC50 values, shown below in Table 1.
(§3) Inhibition of PAR2 signaling with known PAR2 inhibitor I-343 (FIG. 14A) was investigated in HT-29 cells and HEK293 cells, which express endogenous PAR2, and in KNRK cells expressing human (h) PAR2. Accumulation of inositol phosphate-1 (IP1) was measured in response to the PAR2-selective agonist 2-Furoyl-LIGRLO-NH2 (2F), an analogue of the trypsin-exposed tethered ligand, or trypsin.
(§4) KNRK-hPAR2, KNRK, HEK293, or HT-29 cells were seeded at a density of 50×10^3 cells/well onto clear 96-well plates (PerkinElmer). After 24 h of culture, medium was replaced with IP1 stimulation buffer (10 mM HEPES, 1 mM CaCl2, 0.5 mM MgCl2, 4.2 mM KCl, 146 mM NaCl, 5.5 mM glucose, 50 mM LiCl; 37° C., 5% CO2.). Cells were pre-incubated with the antagonist or vehicle for 30 min prior to the addition of agonist. Cells were then further incubated for 40 min. Stimulation buffer was […]

[2] = target: T2, PAR2 (Homo sapiens, UniProt P55085); test: IP1 accumulation assay in HT-29 cells (endogenous PAR2); settings: 2F (300 nM)-induced IP1, HT-29 cells
T2 construct: HT-29 cells and HEK293 cells, which express endogenous PAR2; endogenous in cells; host or cells: HT-29
T2 sequence (P55085 26-397): T1 sequence (P55085 26-397)
Protocol: as §1, §2, §3, §4

[3] = test system: mouse DRG neurons; test: Patch clamp rheobase of DRG neurons: protease-induced hyperexcitability of nociceptors
[4] = read-out: HT-29 300 nM 2F (IC50)
[5] = read-out: HT-29 300 nM 2F pIC50 ± SEM (converted)

| Compound | inhibition at 30 µM [1] [%] | IC50 [2, 4] [nM] | IC50 [2, 5] [nM] | other results |
| --- | --- | --- | --- | --- |
| CC(C)(C)c1cc(-c2ccc(F)cc2)nn2cc(C(=O)N3CCN(C(=O)CCS(=O)(=O)O)CC3(C)C)nc12 [Compound 1, 3-(4-(8-(tert-butyl)-6-(4-fluorophenyl)imidazo[1,2-b]pyridazine-2-carbonyl)-3,3-dimethylpiperazin-1-yl)-3-oxopropane-1-sulfonic acid] | < 50 | 5900 |  |  |
| CC(C)(C)c1cc(-c2ccc(F)cc2)nn2cc(C(=O)N3CCN(C(=O)c4cn(CC(=O)O)nn4)CC3(C)C)nc12 [Compound 2, 2-(4-(4-(8-(tert-butyl)-6-(4-fluorophenyl)imidazo[1,2-b]pyridazine-2-carbonyl)-3,3-dimethylpiperazine-1-carbonyl)-1H-1,2,3-triazol-1-yl)acetic acid] | < 50 | 140 | 138 |  |
| CC(C)(C)c1cc(-c2ccc(F)cc2)nn2cc(C(=O)N3CCN(C(=O)[C@H]4CC[C@@H](C(=O)NC[C@H](O)[C@@H](O)[C@H](O)[C@H](O)CO)CC4)CC3(C)C)nc12 [Compound 3, (1S,4R)-4-(4-(8-(tert-butyl)-6-(4-fluorophenyl)imidazo[1,2-b]pyridazine-2-carbonyl)-3,3-dimethylpiperazine-1-carbonyl)-N-((2S,3R,4R,5R)-2,3,4,5,6-pentahydroxyhexyl)cyclohexane-1-carboxamide] |  | 40 | 40.7 | IC50 [1]: > 10000 nM |
| CC(C)(C)c1cc(-c2ccc(F)cc2)cc2nc(C(=O)N3CCN(C(=O)CCC(=O)NC[C@H](O)[C@@H](O)[C@H](O)[C@H](O)CO)CC3(C)C)oc12 [Compound 4, 4-(4-(7-(tert-butyl)-5-(4-fluorophenyl)benzo[d]oxazole-2-carbonyl)-3,3-dimethylpiperazin-1-yl)-4-oxo-N-((2S,3R,4R,5R)-2,3,4,5,6-pentahydroxyhexyl)butanamide] | < 50 |  | > 10000 |  |
| CC(C)(C)c1cc(-c2ccc(F)cc2)nn2cc(C(=O)N3CCN(C(=O)c4cn(CC(=O)NCCOCCOCCO)nn4)CC3(C)C)nc12 [Compound 5, 2-(4-(4-(8-(tert-butyl)-6-(4-fluorophenyl)imidazo[1,2-b]pyridazine-2-carbonyl)-3,3-dimethylpiperazine-1-carbonyl)-1H-1,2,3-triazol-1-yl)-N-(2-(2-(2-hydroxyethoxy)ethoxy)ethyl)acetamide] | < 50 |  | 180 |  |
| CC(C)(C)c1cc(-c2ccc(F)cc2)nn2cc(C(=O)N3CCN(C(=O)c4cn(CC(=O)NCCOCCOCCOCCOCCOCCO)nn4)CC3(C)C)nc12 [Compound 6, 2-(4-(4-(8-(tert-butyl)-6-(4-fluorophenyl)imidazo[1,2-b]pyridazine-2-carbonyl)-3,3-dimethylpiperazine-1-carbonyl)-1H-1,2,3-triazol-1-yl)-N-(17-hydroxy-3,6,9,12,15-pentaoxaheptadecyl)acetamide] | < 50 | 971 |  |  |
| CC(C)(C)c1cc(-c2ccc(F)cc2)nn2cc(C(=O)N3CCN(C(=O)[C@H]4CC[C@@H](NC(=O)[C@H](O)[C@@H](O)[C@@H](O)[C@H](O)C(N)=O)CC4)CC3(C)C)nc12 [Compound 7, (2R,3S,4R,5S)—N1-((1s,4S)-4-(4-(8-(tert-butyl)-6-(4-fluorophenyl)imidazo[1,2-b]pyridazine-2-carbonyl)-3,3-dimethylpiperazine-1-carbonyl)cyclohexyl)-2,3,4,5-tetrahydroxyhexanediamide] | < 50 | 405 | 406 |  |
| COC(=O)C12CCC(C(=O)N3CCN(C(=O)c4cn5nc(-c6ccc(F)cc6)cc(C(C)(C)C)c5n4)C(C)(C)C3)(CC1)CC2 [Compound 8, methyl 4-(4-(8-(tert-butyl)-6-(4-fluorophenyl)imidazo[1,2-b]pyridazine-2-carbonyl)-3,3-dimethylpiperazine-1-carbonyl)bicyclo[2.2.2]octane-1-carboxylate] |  |  | 42.7 | IC50 [1]: > 10000 nM |
| CC(C)CCC[C@@H](C)[C@H]1CCC2C3CCC4C[C@@H](OC(=O)C[C@H](NC(=O)CCOCCOCCNC(=O)Cn5cc(C(=O)N6CCN(C(=O)c7cn8nc(-c9ccc(F)cc9)cc(C(C)(C)C)c8n7)C(C)(C)C6)nn5)C(N)=O)CC[C@]4(C)C3CC[C@@]21C (stereo partly drawn) [Compound 9, (3S,10S,13R,17R)-10,13-dimethyl-17-((R)-6-methylheptan-2-yl)hexadecahydro-1H-cyclopenta[a]phenanthren-3-yl (14S)-1-(4-(4-(8-(tert-butyl)-6-(4-fluorophenyl)imidazo[1,2-b]pyridazine-2-carbonyl)-3,3-dimethylpiperazine-1-carbonyl)-1H-1,2,3-triazol-1-yl)-14-carbamoyl-2,12-dioxo-6,9-dioxa-3,13-diazahexadecan-16-oate] | < 50 | 700 |  |  |
| CC(C)CCC[C@@H](C)[C@H]1CCC2C3CCC4C[C@@H](OC(=O)C[C@H](NC(=O)CCOCCOCCOCCOCCNC(=O)Cn5cc(C(=O)N6CCN(C(=O)c7cn8nc(-c9ccc(F)cc9)cc(C(C)(C)C)c8n7)C(C)(C)C6)nn5)C(N)=O)CC[C@]4(C)C3CC[C@@]21C (stereo partly drawn) [Compound 11, (3S,10S,13R,17R)-10,13-dimethyl-17-((R)-6-methylheptan-2-yl)hexadecahydro-1H-cyclopenta[a]phenanthren-3-yl (20S)-1-(4-(4-(8-(tert-butyl)-6-(4-fluorophenyl)imidazo[1,2-b]pyridazine-2-carbonyl)-3,3-dimethylpiperazine-1-carbonyl)-1H-1,2,3-triazol-1-yl)-20-carbamoyl-2,18-dioxo-6,9,12,15-tetraoxa-3,19-diazadocosan-22-oate] | < 50 | 970 |  |  |
| CC(C)CCC[C@@H](C)[C@H]1CCC2C3CCC4C[C@@H](OC(=O)C[C@H](NC(=O)CCOCCOCCOCCOCCOCCOCCOCCOCCNC(=O)Cn5cc(C(=O)N6CCN(C(=O)c7cn8nc(-c9ccc(F)cc9)cc(C(C)(C)C)c8n7)C(C)(C)C6)nn5)C(N)=O)CC[C@]4(C)C3CC[C@@]21C (stereo partly drawn) [Compound 12, (3S,10S,13R,17R)-10,13-dimethyl-17-((R)-6-methylheptan-2-yl)hexadecahydro-1H-cyclopenta[a]phenanthren-3-yl (32S)-1-(4-(4-(8-(tert-butyl)-6-(4-fluorophenyl)imidazo[1,2-b]pyridazine-2-carbonyl)-3,3-dimethylpiperazine-1-carbonyl)-1H-1,2,3-triazol-1-yl)-32-carbamoyl-2,30-dioxo-6,9,12,15,18,21,24,27-octaoxa-3,31-diazatetratriacontan-34-oate] | < 50 | 827 |  |  |
| CN(C)CCCn1cc(C2=C(c3c[nH]c4ccccc34)C(=O)NC2=O)c2ccccc21 [GF109203X] |  |  |  | initial trypsin-induced hyperexcitability [3]: prevented; persistent trypsin-induced hyperexcitability [3]: not |
| CC(C)c1ccc(Cn2ccc3c4c(N)nc(NC5CC5)nc4ccc32)cc1 [SCH79797] |  |  |  | rheobase response to trypsin (PAR1 antagonist) ([3]; 1 μM): did not affect; rheobase, antagonist alone ([3]; 1 μM): no effect; thrombin-induced immediate decrease in rheobase ([3]; thrombin 50 nM, 20 min, antagonist 1 μM, 10 min preincubation): prevented |
| thrombin |  |  |  | rheobase after protease ([3]; trypsin 50 nM 10 min, NE 390 nM 30 min, CS 500 nM 60 min, thrombin 50 nM 20 min, washed): immediate decrease in rheobase |
